Assay results: US20170143748A1, “ANTI-TUMOR PHARMACEUTICAL APPLICATION OF PENTACYCLIC TRITERPENE SAPONIN COMPOUNDS OF SZECHUAN MELANDIUM ROOT” (priority 2014, published 2017)

Columns and labels:
Type in all cases: cell-based, Human
HepG2 [1] = experiment: MTT inhibition of tumor cells in vitro (Example 3); conditions: 40 μg/mL, 48 hours
A875 = experiment: MTT inhibition of tumor cells in vitro (Example 3); conditions: 40 μg/mL, 48 hours
Protocol: (§1) Human resources tumor cell line […], […], HT29, MCF-7 and A875 were provided by Cancer Hospital, Chinese Academy of Medical Sciences.
(§2) Cells were passaged every 2 or 3 days, and all the experiments were carried out on exponentially growing cells.
(§3) All cells were cultured in a humidified atmosphere (5% CO2 and […]), and passaged every 2 or 3 days. Cells were harvested on exponentially growing phase, and cell suspension was prepared with 2×10^4 cells/mL, added with 100 μL per well of 96-well plates, and cultured for 24 h in incubator. 100 μL medium without cells was added per well as blank group.
(§4) Compound (1), (2), (3), (4), (7) or (8) was dissolved in DMSO respectively, and diluted with 1640 medium at a final concentration of 400 μg/mL, so as to that of the Cisplatin. Cells were divided into 9 groups, they were blank group, model group, Compound (1), (2), (3), (4), (7) and (8) groups, and Cisplatin group as the positive one, 6 wells per group.
(§5) Before drug administration, supernatant of each well was removed and fresh 1640 medium was added, 180 μL per well. Compounds and Cisplatin were added with 20 μL per well respectively at a final concentration of 40 μg/mL. Wells of blank and model groups were added with 0.5% DMSO, 20 μL per well. 48 hours later, 20 μL MTT was added per well and continued to culture for 4 hours, then the supernatant was replaced carefully and DMSO was added with 150 μL per well to end the experiment. The 96-well plates were shaken for 10 mins and read the absorbance at 490 nm. The Inhibition rate was calculated.
(§6) Inhibition rate=[(ODmodel−ODblank)−(ODdrugs−ODblank)]/(ODmodel−ODblank)×100%
(§7) The MTT experiment was repeated three times.

BGC823 = experiment: MTT inhibition of tumor cells in vitro (Example 3); conditions: 40 μg/mL, 48 hours
Protocol: as §1, §2, §3, §4, §5, §6, §7

HT29 = experiment: MTT inhibition of tumor cells in vitro (Example 3); conditions: 40 μg/mL, 48 hours
Protocol: as §1, §2, §3, §4, §5, §6, §7

MCF-7 = experiment: MTT inhibition of tumor cells in vitro (Example 3); conditions: 40 μg/mL, 48 hours
Protocol: as §1, §2, §3, §4, §5, §6, §7

HepG2 [2] = experiment: Inhibitory activity and IC50 to HepG2 at different time of treatment (MTT, Example 4); conditions: HepG2, 40 μg/ml
Protocol: Human resources hepatoma cell line HepG2 was provided by Cancer Hospital, Chinese Academy of Medical Sciences. […] Cells were passaged every 2 or 3 days, and all the experiments were carried out on exponentially growing cells.
Cells were harvested in good growth status and cell suspension was prepared with 2×10^4 cells/mL, added 100 μL per well of 96-well plates, and cultured for 24 h in the incubator. 100 μL liquid medium with no cell was added per well as blank group.
3 plates were used as parallel test to culture cells at different period.
Before medication, supernatant of each well was removed and fresh 1640 medium was added, 180 μL per well. […] Wells of blank and model groups were added with 0.5% DMSO, 20 μL per well. After finished adding drugs, cells were incubated for 24 and 48 h respectively. At the end of incubation, 20 μL MTT was added per well […]. The supernatant was removed carefully and 150 μL DMSO was added per well. After shaken for 10 mins, the absorbance was read at 490 nm and the inhibition rate was calculated with the formula below.
as §6
IC50 was calculated with Bliss method.
as §7

`N.N.[Cl][Pt][Cl]` [Cisplatin, reference compound] was tested, and the “Inhibition rate, HepG2” value (HepG2 [1]) was 82.15 ± 4.05%, the “Inhibition rate, A875” value (A875) was 90.13 ± 1.98% and the “Inhibition rate, BGC823” value (BGC823) was 97.86 ± 4.12%. The “Inhibition rate, HT29” value (HT29) was 99.04 ± 1.15%, the “Inhibition rate, MCF-7” value (MCF-7) was 97.53 ± 2.05% and the “Inhibition rate” value (HepG2 [2]; 24 h) was 47.94 ± 6.328%. For the same compound, the “Inhibition rate” value (HepG2 [2]; 48 h) was 99.45 ± 0.36%.
